# Results as given in patent publication US7176313B2, “Anti acid-fast bacterial agent containing pyridonecarboxylic acids as active ingredient” (Daiichi Pharmaceutical Co., Ltd., priority 2000, dated 2007).
# Where two headings read alike, the source gives them in different places.
# Key:
# M. avium = assay: Antibacterial activity (MIC) against M. avium; assay type: cell-based, Mycobacterium avium
# Description: Antibacterial activity of the compounds of the invention was measured in accordance with the method described in the literature of Antimicrob. […] In the tables, “OFLX” is an abbreviation of “OFLOXAIN”.
# M. intracellulare = assay: Antibacterial activity (MIC) against M. intracellulare; assay type: cell-based, Mycobacterium intracellulare
# Description: Antibacterial activity of the compounds of the invention was measured in accordance with the method described in the literature of Antimicrob. Agents and Chemother., 38, 2877 (1994), and the results are shown in Tables 3 to 8 in terms of MIC (μg/ml). In the tables, “OFLX” is an abbreviation of “OFLOXAIN”.
# [1] = test system: Mycobacterium tuberculosis (RFP sensitive); assay: Antibacterial activity (MIC) against Mycobacterium tuberculosis (RFP sensitive); assay type: cell-based
# [2] = M. intracellulare N-294, Table 3
# [3] = M. intracellulare N-313, Table 3
# [4] = M. intracellulare N-338, Table 3
# [5] = M. intracellulare N-345, Table 3
# [6] = M. tuberculosis Kurono, Table 5
# [7] = M. tuberculosis No. 40, Table 5
# [8] = M. tuberculosis No. 41, Table 5
# [9] = M. tuberculosis No. 43, Table 5
# [10] = M. tuberculosis No. 68, Table 5
Structure (SMILES),"MIC (M. avium; M. avium N-357, Table 3)","MIC (M. avium; M. avium N-444, Table 3)","MIC (M. avium; M. avium N-458, Table 3)","MIC (M. avium; M. avium N-472, Table 3)",MIC (M. intracellulare; [2]),MIC (M. intracellulare; [3]),MIC (M. intracellulare; [4]),MIC (M. intracellulare; [5]),"MIC ([1]; M. tuberculosis H37Rv, Table 5)","MIC [1, 6]","MIC [1, 7]","MIC [1, 8]","MIC [1, 9]","MIC [1, 10]",other results
Cc1c(N2CC(N)C3(CC3)C2)c(F)cc2c(=O)c(C(=O)O)cn([C@@H]3C[C@@H]3F)c12 (stereo partly shown) [Compd. 12],0.20 µg/mL,0.39 µg/mL,0.39 µg/mL,1.56 µg/mL,0.78 µg/mL,0.20 µg/mL,0.39 µg/mL,0.39 µg/mL,0.025 µg/mL,0.025 µg/mL,0.025 µg/mL,0.006 µg/mL,0.10 µg/mL,0.05 µg/mL,
COc1c(N2CC3CCCNC3C2)c(F)cc2c(=O)c(C(=O)O)cn(C3CC3)c12 (stereo not shown) [Compd. 5],0.39 µg/mL,1.56 µg/mL,0.78 µg/mL,,1.56 µg/mL,0.78 µg/mL,1.56 µg/mL,3.13 µg/mL,0.10 µg/mL,0.05 µg/mL,0.10 µg/mL,0.025 µg/mL,0.78 µg/mL,0.10 µg/mL,
Cc1c(N2CC3CCCNC3C2)c(F)cc2c(=O)c(C(=O)O)cn([C@@H]3C[C@@H]3F)c12 (stereo partly shown) [Compd. 10],0.05 µg/mL,0.39 µg/mL,0.10 µg/mL,0.39 µg/mL,0.39 µg/mL,0.10 µg/mL,0.39 µg/mL,0.78 µg/mL,0.013 µg/mL,0.006 µg/mL,0.006 µg/mL,<0.003 µg/mL,0.05 µg/mL,0.013 µg/mL,
"CO[C@H]1/C=C/O[C@@]2(C)Oc3c(C)c(O)c4c(O)c(c(/C=N/N5CCN(C)CC5)c(O)c4c3C2=O)NC(=O)/C(C)=C\C=C\[C@H](C)[C@H](O)[C@@H](C)[C@@H](O)[C@@H](C)[C@H](OC(C)=O)[C@@H]1C [RFP, rifampicin, reference compound]",,,,,,,3.13 µg/mL,3.13 µg/mL,,,,,,,"MIC (M. avium; Mycobacterium avium, M. avium N-357, Table 3, read-out: MIC): 50 µg/mL; MIC (M. avium; Mycobacterium avium, M. avium N-458, Table 3, read-out: MIC): 100 µg/mL; MIC (M. intracellulare; Mycobacterium intracellulare, M. intracellulare N-313, Table 3, read-out: MIC): 0.78 µg/mL; MIC (M. intracellulare; Mycobacterium intracellulare, M. intracellulare N-294, Table 3, read-out: MIC): 3.13 µg/mL; MIC ([1]; Mycobacterium tuberculosis, H37RV, M. tuberculosis H37Rv, Table 5, read-out: MIC): 0.2 µg/mL; MIC ([1]; Mycobacterium tuberculosis, M. tuberculosis Kurono, Table 5, read-out: MIC): 0.1 µg/mL; MIC ([1]; Mycobacterium tuberculosis, M. tuberculosis No. 40, Table 5, read-out: MIC): 0.1 µg/mL; MIC ([1]; Mycobacterium tuberculosis, M. tuberculosis No. 41, Table 5, read-out: MIC): 0.05 µg/mL; MIC ([1]; Mycobacterium tuberculosis, M. tuberculosis No. 43, Table 5, read-out: MIC): 3.13 µg/mL; MIC ([1]; Mycobacterium tuberculosis, M. tuberculosis No. 68, Table 5, read-out: MIC): 3.13 µg/mL"
O=C(O)c1cn(C2CC2)c2c(Cl)c(N3CC4CCCNC4C3)c(F)cc2c1=O (stereo not shown) [Compd. 1],0.10 µg/mL,0.20 µg/mL,0.20 µg/mL,1.56 µg/mL,0.39 µg/mL,0.10 µg/mL,0.39 µg/mL,0.39 µg/mL,0.025 µg/mL,0.013 µg/mL,0.025 µg/mL,<0.003 µg/mL,0.20 µg/mL,0.025 µg/mL,
C[C@H]1COc2c(N3CC(N)C4(CC4)C3)c(F)cc3c(=O)c(C(=O)O)cn1c23 (stereo partly shown) [Compd. 14],1.56 µg/mL,3.13 µg/mL,1.56 µg/mL,6.25 µg/mL,3.13 µg/mL,0.78 µg/mL,6.25 µg/mL,6.25 µg/mL,0.20 µg/mL,0.10 µg/mL,0.20 µg/mL,,,0.20 µg/mL,
"CC1COc2c(N3CCN(C)CC3)c(F)cc3c(=O)c(C(=O)O)cn1c23 (stereo not shown) [OFLX, OFLOXAIN, reference compound]",3.13 µg/mL,25 µg/mL,3.13 µg/mL,50 µg/mL,12.5 µg/mL,6.25 µg/mL,25 µg/mL,25 µg/mL,0.39 µg/mL,0.39 µg/mL,0.39 µg/mL,0.10 µg/mL,,0.39 µg/mL,"MIC (M. avium; M. avium N-357, Table 4 (series 2)): 4.0 µg/mL; MIC (M. avium; M. avium N-444, Table 4 (series 2)): 32 µg/mL; MIC (M. avium; M. avium N-458, Table 4 (series 2)): 4.0 µg/mL; MIC (M. avium; M. avium N-472, Table 4 (series 2)): 128 µg/mL; MIC (M. intracellulare; M. intracellulare N-294, Table 4 (series 2)): 8.0 µg/mL; MIC (M. intracellulare; M. intracellulare N-313, Table 4 (series 2)): 1.0 µg/mL; MIC (M. intracellulare; M. intracellulare N-338, Table 4 (series 2)): 2.0 µg/mL; MIC (M. intracellulare; M. intracellulare N-345, Table 4 (series 2)): 2.0 µg/mL; MIC ([1]; M. tuberculosis H37Rv, Table 6 (series 2)): 1.0 µg/mL; MIC ([1]; M. tuberculosis Kurono, Table 6 (series 2)): 0.50 µg/mL; MIC ([1]; M. tuberculosis No. 40, Table 6 (series 2)): 1.0 µg/mL; MIC ([1]; M. tuberculosis No. 41, Table 6 (series 2)): 0.25 µg/mL; MIC ([1]; M. tuberculosis No. 43, Table 6 (series 2)): 8.0 µg/mL; MIC ([1]; M. tuberculosis No. 68, Table 6 (series 2)): 1.0 µg/mL"
